The subject of one experiment is Male Sprague Dawley rats. Kind of experiment: Forced Swim Test (Acute), FST. In kind it is in vivo. The settings on record: p.o. Here is the method:
The Forced Swim test (FST) is a commonly used procedure to screen compounds for possible antidepressant properties. This test is also known as the behavioral despair test. Rodents placed in […] tanks filled with water present a wide variety of escape or immobility behaviors. Antidepressant drugs from different classes markedly increase escape behaviors and/or decrease latency or duration of immobility.
Venlafaxine and desipramine were dissolved in water. All drugs and their vehicles were administered orally (p.o.) by gavage in a volume of 5 mL/kg.
Male Sprague Dawley rats (140 to 160 g) from Charles River Laboratories Wilmington, Mass. were used. The animals went through a five-day quarantine period before being subjected to the experimental procedure.
Animals were housed in groups of four in plastic cages at an ambient temperature of 21° C. to 23° C. with an automated 12 hour light/dark cycle and access to water and commercial rodent food ad libitum. Animals were not handled more than for the routine bedding change prior to pre-test swim session.
Each experiment consisted of seven treatment groups with n=4 animals per group. A total of 28 animals per experiment were used. Two consecutive experiments (1 and 2, 3 and 4, and 5 and 6) were exact replicas of each other. […] One treatment group of n=4 animals in each experiment was a vehicle treated group. […] In experiments 5 and 6 the effects of venlafaxine and maprotyline at 12 mg/kg, 30 mg/kg, and 60 mg/kg were tested.
The basic apparatus consisted of a cylinder (46 cm tall×˜20 cm diameter) filled with water to 30 cm deep, at a temperature of 25±1° C. The automated version of the FST was used to perform the experiments. Plumbing for automatic filling and emptying water connected the four cylinders. Cylinders were placed in the dividing chambers 25 cm wide to separate animals visually. Each 5-minute experimental session was videotaped and analyzed in real time by computer software (Clever Systems, Inc.) for four animals at a time. The immobility, swimming, climbing and escape times were recorded by the software. The four activities are defined as follow. Immobility: the animal floats motionlessly or makes only those movements necessary to keep its head above water; Climb: the animal vigorously moves vertically while scratching the wall around the cylinder; Swim: the animal moves horizontally around in the cylinder more than necessary to keep its head above water; and Escape: sum of all vigorous active movements.
The ability of a test compound to decrease the duration or frequency of immobility, or changes in swimming, climbing and escape times, was measured using the FST procedure described above. […] The analysis of the results in the studies described was focused on the immobility time during 5-minute test session.
There were two swim sessions in each experiment. First, a pre-test swim session for 15 minutes was performed. Following 48 hours later was a test session of 5-minute duration. Upon completion of a swim session, each animal was placed under a heat lamp in a cage with soft bedding for approximately 15 minutes to prevent hypothermia.
Animals were pre-treated with a vehicle or test compound after completing the pre-test swim session, then 24 hours later and then shortly prior to the 5-minute test session; i.e., three injections were given to each animal between the two swim sessions that occurred on 3 consecutive days.
Data were analyzed using GraphPad Prism software (GraphPad Software, Inc. San Diego, Calif.). For the comparison of the effect of different doses for various drugs on immobility in the FST one-way ANOVA was used followed by Dunnett's multiple comparison test. […] The ED50 and Emax values were statistically compared using two-tail t-test.

The subject of another experiment is Male Wistar rats. Nature of the experiment: Chronic Mild Stress Model (Chronic), sucrose consumption. It is filed as in vivo. The text has this:
In the chronic mild stress (CMS) model rats subjected to a variety of mild stressors for a prolonged period of time show, among other behavioural, biochemical and physiological impairments, a substantial decrease in their responsiveness to rewarding stimuli. This deficit is usually monitored by a decrease in the consumption of the 1% sucrose solution, but can also be seen in other tests, such as place preference conditioning or intracranial self-stimulation. Since the subsensitivity to reward appears to reflect anhedonia (inability to experience pleasure), which is a core symptom of major depressive disorders, the CMS procedure may serve as a suitable research tool in studies into the mechanisms of antidepressant action.
Male Wistar rats were brought into the laboratory two months before the start of the experiment. Except as described below, the animals were singly housed with food and water freely available, and were maintained on a 12-h light/dark and in a constant temperature (22±2° C.) and humidity (50±5%) conditions.
The animals were first trained to consume a 1% sucrose solution; training consisted of eight 1 h baseline tests in which sucrose was presented, in the home cage, following 14 h food and water deprivation; the sucrose intake was measured by weighing pre-weighed bottles containing the sucrose solution, at the end of the test. Subsequently, sucrose consumption was monitored, under similar conditions, at weekly intervals throughout the whole experiment.
On the basis of their sucrose intakes in the final baseline test, the animals were divided into two matched groups. One group of animals was subjected to the chronic mild stress procedure for a period of 7 consecutive weeks. Each week of stress regime consisted of: two periods of food or water deprivation, two periods of 45 degree cage tilt, two periods of intermittent illumination (lights on and off every 2 h), two periods of soiled cage (250 ml water in sawdust bedding), one period of paired housing, two periods of low intensity stroboscopic illumination (150 flashes/min), and three periods of no stress. All stressors were 10-14 h of duration and were applied individually and continuously, day and night. Control animals were housed in separate rooms and had no contact with the stressed animals. They were deprived of food and water for the 14 h preceding each sucrose test, but otherwise food and water were freely available in the home cage.
The drugs were administered at approx. 10.00 and the weekly sucrose tests were carried out 24 h following the last drug injections. […]
All results obtained in this study were analyzed by multiple analyses of variance with three between-subjects factors (stress/control, drug treatments and successive sucrose tests). […]

Experimental findings from patent US20070155827A1, “USE OF BENZO-FUSED HETEROCYCLE SULFAMIDE DERIVATIVES FOR THE TREATMENT OF DEPRESSION” (priority 2005, published 2007) are described below.

For orientation: ED50 means the dose that gives a 50% effect, or the effect in half of the subjects. As for `NS(=O)(=O)NC[C@H]1COc2cc(Cl)ccc2O1` [Compound #8, (2S)-(−)-N-(6-Chloro-2,3-dihydro-benzo[1,4]dioxin-2-ylmethyl)-sulfamide], in the experiment with Male Sprague Dawley rats (Rattus norvegicus, po, 5 min, three administrations, 5-minute test session, read-out: ED50 (immobility)), the ED50 stood at 5.6 ± 0.6 mg/kg. The “effect in the FST (immobility time)” value in the experiment on Male Sprague Dawley rats (5-minute testing session) is reported as “antidepressant-like activity in the FST”. Further, in the experiment with Male Sprague Dawley rats (immobility), the “Emax (immobility)” value turned out to be 67.0 ± 11.6 s. Also, the “Treatment effect on sucrose intake vs vehicle, control animals” value with Male Wistar rats (controls, 12, 30 or 60 mg/kg once daily i.p. for five weeks) is on record as “did not cause significant Treatment effects”. Further, the “Treatment effect on sucrose intake vs vehicle, stressed animals” value with Male Wistar rats (stressed, 12, 30 or 60 mg/kg once daily i.p. for five weeks) is listed as “did not cause significant Treatment effects”.
